Laboratory results reported in patent US20140155389A1, “BICYCLIC INHIBITORS OF ALK” (ABBVIE INC., priority 2011, published 2014).

Biological target: T1, ALK (Homo sapiens, UniProt Q9UM73)
T1 construct: purchased Millipore
Experiment: ALK kinase assay (HTRF)
Assay type: biochemical
Settings: apparent Ki from IC50 by Cheng-Prusoff; ALK (Millipore) 3 nM or 4 nM, 50 μM ATP, 1 h at room temperature; read-out: HTRF_ALK Human - Ki

T1 sequence (Q9UM73 19-1620): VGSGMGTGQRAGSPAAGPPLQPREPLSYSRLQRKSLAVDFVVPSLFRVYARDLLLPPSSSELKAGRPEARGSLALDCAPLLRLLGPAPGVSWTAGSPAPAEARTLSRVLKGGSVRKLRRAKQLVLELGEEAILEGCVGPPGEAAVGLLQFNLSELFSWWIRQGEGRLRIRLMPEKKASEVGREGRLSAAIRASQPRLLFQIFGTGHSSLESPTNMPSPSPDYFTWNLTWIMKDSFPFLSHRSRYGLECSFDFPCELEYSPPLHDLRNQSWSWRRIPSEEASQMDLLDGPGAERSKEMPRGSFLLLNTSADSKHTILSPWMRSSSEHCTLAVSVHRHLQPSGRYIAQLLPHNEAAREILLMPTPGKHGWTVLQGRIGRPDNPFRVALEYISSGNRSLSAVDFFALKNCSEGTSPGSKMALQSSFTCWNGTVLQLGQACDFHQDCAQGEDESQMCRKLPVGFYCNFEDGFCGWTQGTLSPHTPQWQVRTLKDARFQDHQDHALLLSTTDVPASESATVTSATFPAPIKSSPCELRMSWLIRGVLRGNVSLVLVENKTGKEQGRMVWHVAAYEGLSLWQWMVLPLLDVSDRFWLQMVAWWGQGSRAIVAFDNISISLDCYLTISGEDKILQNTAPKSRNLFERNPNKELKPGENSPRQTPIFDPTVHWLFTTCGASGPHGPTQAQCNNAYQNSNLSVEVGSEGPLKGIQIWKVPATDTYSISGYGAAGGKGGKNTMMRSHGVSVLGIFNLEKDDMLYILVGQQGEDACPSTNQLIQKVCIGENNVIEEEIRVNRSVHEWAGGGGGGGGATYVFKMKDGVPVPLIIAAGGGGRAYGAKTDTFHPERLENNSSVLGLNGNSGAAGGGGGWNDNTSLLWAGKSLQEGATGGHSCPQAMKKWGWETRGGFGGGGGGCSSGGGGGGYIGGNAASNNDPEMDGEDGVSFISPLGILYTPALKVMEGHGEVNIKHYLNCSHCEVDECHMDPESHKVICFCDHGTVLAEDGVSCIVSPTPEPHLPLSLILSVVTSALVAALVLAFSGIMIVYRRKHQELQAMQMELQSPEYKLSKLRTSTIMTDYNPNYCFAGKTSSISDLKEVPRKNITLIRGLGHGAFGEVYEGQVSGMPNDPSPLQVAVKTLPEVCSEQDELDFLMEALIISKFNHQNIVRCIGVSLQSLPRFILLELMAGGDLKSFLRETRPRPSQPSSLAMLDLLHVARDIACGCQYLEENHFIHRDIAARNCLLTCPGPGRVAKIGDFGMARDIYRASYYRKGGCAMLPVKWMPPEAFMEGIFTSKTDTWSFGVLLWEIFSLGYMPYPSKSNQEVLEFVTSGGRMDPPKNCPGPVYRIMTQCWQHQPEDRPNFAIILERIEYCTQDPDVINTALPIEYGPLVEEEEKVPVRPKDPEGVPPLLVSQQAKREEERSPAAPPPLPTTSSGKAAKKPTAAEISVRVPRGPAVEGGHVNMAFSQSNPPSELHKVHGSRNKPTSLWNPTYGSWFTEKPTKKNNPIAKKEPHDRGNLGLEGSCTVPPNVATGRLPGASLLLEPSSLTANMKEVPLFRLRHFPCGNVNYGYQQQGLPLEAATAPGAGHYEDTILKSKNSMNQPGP

Row | Structure (SMILES) | Ki
1 | COc1cc(N2CCNCC2)ccc1Nc1nc(Nc2cc(Cl)ccc2F)cc2cn[nH]c(=O)c12 [Example 25, 7-[(5-chloro-2-fluorophenyl)amino]-5-{[2-methoxy-4-(piperazin-1-yl)phenyl]amino}pyrido[3,4-d]pyridazin-4(3H)-one] | 6 nM
2 | COc1cc(N2CCNCC2)ccc1Nc1nc(Nc2cc(F)ccc2Cl)cc2cn[nH]c(=O)c12 [Example 27, 7-[(2-chloro-5-fluorophenyl)amino]-5-{[2-methoxy-4-(piperazin-1-yl)phenyl]amino}pyrido[3,4-d]pyridazin-4(3H)-one] | 3 nM
3 | COc1cc(N2CCNCC2)ccc1Nc1nc(Nc2cc(Cl)ccc2Cl)cc2cn[nH]c(=O)c12 [Example 28, 7-[(2,5-dichlorophenyl)amino]-5-{[2-methoxy-4-(piperazin-1-yl)phenyl]amino}pyrido[3,4-d]pyridazin-4(3H)-one] | 4 nM
4 | COc1cc(N2CCNCC2)ccc1Nc1nc(Nc2c(F)cccc2Cl)cc2cn[nH]c(=O)c12 [Example 29, 7-[(2-chloro-6-fluorophenyl)amino]-5-{[2-methoxy-4-(piperazin-1-yl)phenyl]amino}pyrido[3,4-d]pyridazin-4(3H)-one] | 1 nM
5 | COc1cc(N2CCN(C)CC2)ccc1Nc1nc(Cc2c(Cl)cccc2Cl)cc2cn[nH]c(=O)c12 [Example 30, 7-(2,6-dichlorobenzyl)-5-{[2-methoxy-4-(4-methylpiperazin-1-yl)phenyl]amino}pyrido[3,4-d]pyridazin-4(3H)-one] | 3 nM
6 | COc1cc(N2CCNCC2)ccc1Nc1nc(Nc2cc(Cl)cc(Cl)c2)cc2cn[nH]c(=O)c12 [Example 31, 7-[(3,5-dichlorophenyl)amino]-5-{[2-methoxy-4-(piperazin-1-yl)phenyl]amino}pyrido[3,4-d]pyridazin-4(3H)-one] | 19 nM
7 | COc1cc(N2CCNCC2)ccc1Nc1nc(Nc2c(F)cccc2F)cc2cn[nH]c(=O)c12 [Example 32, 7-[(2,6-difluorophenyl)amino]-5-{[2-methoxy-4-(piperazin-1-yl)phenyl]amino}pyrido[3,4-d]pyridazin-4(3H)-one] | 2 nM
8 | COc1cc(N2CCNCC2)ccc1Nc1nc(Nc2c(Cl)cncc2Cl)cc2cn[nH]c(=O)c12 [Example 33, 7-[(3,5-dichloropyridin-4-yl)amino]-5-{[2-methoxy-4-(piperazin-1-yl)phenyl]amino}pyrido[3,4-d]pyridazin-4(3H)-one] | 0.2 nM
9 | COc1cc(N2CCNCC2)ccc1Nc1nc(Nc2ccc(Cl)cc2Cl)cc2cnnc(O)c12 [Example 34, 7-[(2,4-dichlorophenyl)amino]-5-{[2-methoxy-4-(piperazin-1-yl)phenyl]amino}pyrido[3,4-d]pyridazin-4-ol] | 4 nM
10 | COc1cc(N2CCNCC2)ccc1Nc1nc(Nc2c(Cl)cc(F)cc2Cl)cc2cnnc(O)c12 [Example 35, 7-[(2,6-dichloro-4-fluorophenyl)amino]-5-{[2-methoxy-4-(piperazin-1-yl)phenyl]amino}pyrido[3,4-d]pyridazin-4-ol] | 1 nM
11 | COCCNc1cc2cnnc(O)c2c(Nc2ccc(N3CCNCC3)cc2OC)n1 [Example 36, 7-[(2-methoxyethyl)amino]-5-{[2-methoxy-4-(piperazin-1-yl)phenyl]amino}pyrido[3,4-d]pyridazin-4-ol] | 26 nM
12 | COc1cc(N2CCNCC2)ccc1Nc1nc(Nc2cccc(F)c2F)cc2cn[nH]c(=O)c12 [Example 37, 7-[(2,3-difluorophenyl)amino]-5-{[2-methoxy-4-(piperazin-1-yl)phenyl]amino}pyrido[3,4-d]pyridazin-4(3H)-one] | 3 nM
13 | COc1cc(N2CCNCC2)ccc1Nc1nc(NCc2ccco2)cc2cnnc(O)c12 [Example 38, 7-[(furan-2-ylmethyl)amino]-5-{[2-methoxy-4-(piperazin-1-yl)phenyl]amino}pyrido[3,4-d]pyridazin-4-ol] | 16 nM
14 | COc1cc(N2CCNCC2)ccc1Nc1nc(N2CCCCC2)cc2cn[nH]c(=O)c12 [Example 39, 5-{[2-methoxy-4-(piperazin-1-yl)phenyl]amino}-7-(piperidin-1-yl)pyrido[3,4-d]pyridazin-4(3H)-one] | 7 nM
15 | COc1cc(N2CCNCC2)ccc1Nc1nc(NCc2ccccc2)cc2cn[nH]c(=O)c12 [Example 40, 7-(benzylamino)-5-{[2-methoxy-4-(piperazin-1-yl)phenyl]amino}pyrido[3,4-d]pyridazin-4(3H)-one] | 36 nM
16 | COc1cc(N2CCNCC2)ccc1Nc1nc(-c2ccccc2)cc2cn[nH]c(=O)c12 [Example 41, 5-{[2-methoxy-4-(piperazin-1-yl)phenyl]amino}-7-phenylpyrido[3,4-d]pyridazin-4(3H)-one] | 28 nM
17 | O=c1[nH]ncc2cc(Cc3c(Cl)cccc3Cl)nc(Nc3c(F)cc(N4CCNCC4)cc3F)c12 [Example 42, 7-(2,6-dichlorobenzyl)-5-{[2,6-difluoro-4-(piperazin-1-yl)phenyl]amino}pyrido[3,4-d]pyridazin-4(3H)-one] | 25 nM
18 | COc1cc(N2CCNCC2)ccc1Nc1nc(Nc2ccccn2)cc2cn[nH]c(=O)c12 [Example 43, 5-{[2-methoxy-4-(piperazin-1-yl)phenyl]amino}-7-(pyridin-2-ylamino)pyrido[3,4-d]pyridazin-4(3H)-one] | 15 nM

Row | Structure (SMILES) | Ki
19 | COc1cc(N2CCNCC2)ccc1Nc1nc(Nc2cccnc2)cc2cn[nH]c(=O)c12 [Example 44, 5-{[2-methoxy-4-(piperazin-1-yl)phenyl]amino}-7-(pyridin-3-ylamino)pyrido[3,4-d]pyridazin-4(3H)-one] | 13 nM
20 | COc1cc(N2CCNCC2)ccc1Nc1nc(NCCN(C)C)cc2cn[nH]c(=O)c12 [Example 45, 7-{[2-(dimethylamino)ethyl]amino}-5-{[2-methoxy-4-(piperazin-1-yl)phenyl]amino}pyrido[3,4-d]pyridazin-4(3H)-one] | 51 nM
21 | COc1cc(N2CCNCC2)ccc1Nc1nc(NC2CCCCC2)cc2cn[nH]c(=O)c12 [Example 46, 7-(cyclohexylamino)-5-{[2-methoxy-4-(piperazin-1-yl)phenyl]amino}pyrido[3,4-d]pyridazin-4(3H)-one] | 3 nM
22 | COc1cc(N2CCNCC2)ccc1Nc1nc(NCCc2ccccn2)cc2cnnc(O)c12 [Example 47, 5-{[2-methoxy-4-(piperazin-1-yl)phenyl]amino}-7-{[2-(pyridin-2-yl)ethyl]amino}pyrido[3,4-d]pyridazin-4-ol] | 53 nM
23 | COc1cc(N2CCNCC2)ccc1Nc1nc(Nc2ccccc2F)cc2cn[nH]c(=O)c12 [Example 48, 7-[(2-fluorophenyl)amino]-5-{[2-methoxy-4-(piperazin-1-yl)phenyl]amino}pyrido[3,4-d]pyridazin-4(3H)-one] | 4 nM
24 | COc1cc(N2CCNCC2)ccc1Nc1nc(Nc2c(C)cccc2C)cc2cn[nH]c(=O)c12 [Example 49, 7-[(2,6-dimethylphenyl)amino]-5-{[2-methoxy-4-(piperazin-1-yl)phenyl]amino}pyrido[3,4-d]pyridazin-4(3H)-one] | 1 nM
25 | COc1cc(N2CCNCC2)ccc1Nc1nc(Nc2ncccc2Cl)cc2cn[nH]c(=O)c12 [Example 50, 7-[(3-chloropyridin-2-yl)amino]-5-{[2-methoxy-4-(piperazin-1-yl)phenyl]amino}pyrido[3,4-d]pyridazin-4(3H)-one] | 9 nM
26 | COc1cc(N2CCNCC2)ccc1Nc1nc(Nc2cccc(Cl)c2Cl)cc2cn[nH]c(=O)c12 [Example 51, 7-[(2,3-dichlorophenyl)amino]-5-{[2-methoxy-4-(piperazin-1-yl)phenyl]amino}pyrido[3,4-d]pyridazin-4(3H)-one] | 2 nM
27 | COc1cc(N2CCNCC2)ccc1Nc1nc(Nc2c(F)cc(F)cc2F)cc2cn[nH]c(=O)c12 [Example 52, 5-{[2-methoxy-4-(piperazin-1-yl)phenyl]amino}-7-[(2,4,6-trifluorophenyl)amino]pyrido[3,4-d]pyridazin-4(3H)-one] | 2 nM
28 | COc1cc(N2CCNCC2)ccc1Nc1nc(Nc2ccc(F)c(F)c2F)cc2cn[nH]c(=O)c12 [Example 53, 5-{[2-methoxy-4-(piperazin-1-yl)phenyl]amino}-7-[(2,3,4-trifluorophenyl)amino]pyrido[3,4-d]pyridazin-4(3H)-one] | 4 nM
29 | COc1cc(N2CCNCC2)ccc1Nc1nc(Nc2cccc(Cl)c2F)cc2cnnc(O)c12 [Example 54, 7-[(3-chloro-2-fluorophenyl)amino]-5-{[2-methoxy-4-(piperazin-1-yl)phenyl]amino}pyrido[3,4-d]pyridazin-4-ol] | 4 nM
30 | COc1cc(N2CCNCC2)ccc1Nc1nc(NC2CCOCC2)cc2cnnc(O)c12 [Example 55, 5-{[2-methoxy-4-(piperazin-1-yl)phenyl]amino}-7-(tetrahydro-2H-pyran-4-ylamino)pyrido[3,4-d]pyridazin-4-ol] | 6 nM
31 | COc1cc(N2CCNCC2)ccc1Nc1nc(Nc2nccs2)cc2cn[nH]c(=O)c12 [Example 56, 5-{[2-methoxy-4-(piperazin-1-yl)phenyl]amino}-7-(1,3-thiazol-2-ylamino)pyrido[3,4-d]pyridazin-4(3H)-one] | 5 nM
32 | O=c1[nH]ncc2cc(Cc3c(Cl)cccc3Cl)nc(Nc3ccc(N4CCNCC4)cc3Cl)c12 [Example 57, 5-{[2-chloro-4-(piperazin-1-yl)phenyl]amino}-7-(2,6-dichlorobenzyl)pyrido[3,4-d]pyridazin-4(3H)-one] | 2 nM
33 | COc1cc(N2CCNCC2)ccc1Nc1nc(NC2CCN(C)CC2)cc2cn[nH]c(=O)c12 [Example 58, 5-{[2-methoxy-4-(piperazin-1-yl)phenyl]amino}-7-[(1-methylpiperidin-4-yl)amino]pyrido[3,4-d]pyridazin-4(3H)-one] | 4 nM
34 | COc1c(Nc2nc(Cc3c(Cl)cccc3Cl)cc3cnnc(O)c23)ccc(N2CCNCC2)c1F [Example 59, 7-(2,6-dichlorobenzyl)-5-{[3-fluoro-2-methoxy-4-(piperazin-1-yl)phenyl]amino}pyrido[3,4-d]pyridazin-4-ol] | 4 nM
35 | COc1cc(N2CCNCC2)ccc1Nc1nc(Nc2ccncc2Cl)cc2cn[nH]c(=O)c12 [Example 60, 7-[(3-chloropyridin-4-yl)amino]-5-{[2-methoxy-4-(piperazin-1-yl)phenyl]amino}pyrido[3,4-d]pyridazin-4(3H)-one] | 3 nM
